Results: patent US7416744B2, “Extracts, compounds and pharmaceutical compositions having anti-diabetic activity and their use” (priority 2000, dated 2008)

Columns and labels:
male ZDF rats [1] = test: Chronic study: bodyweight; type: in vivo, rat
Description: (§1) After a wash-out of 9 days after the acute dose, the rats were retained in the same treatment groups for the chronic study. […] For the pair-feeding, rats were individually matched. Pair-fed rats together with controls were dosed with water daily. Rats were dosed daily at ca 9.30 AM. The initial doses were 120 mg/kg (high dose) and 60 mg/kg (low dose).
(§2) Food and water intake were measured daily. Bodyweights were measured twice weekly. Blood samples were taken for determination of glucose, insulin and leptin. Oral glucose tolerance was also measured.
(§3) Chronic Study—The compound (1) was made up in water. Animals were dosed at the appropriate rate daily by oral gavage. Control animals received water alone at the rate of 1 ml/kg. Doses were administered at ca 10 AM each day for a total of 30 days.
(§4) On Day 7 of the dosing procedure the dose levels of groups B & D were reduced to 60 mg/kg and 30 mg/kg due to concerns over that food intake suppression might be too great. The dosing procedure remained the same and animals were dosed for a further 23 days (30 days dosing in total).
The bodyweight of each rat was measured twice weekly throughout the course of the study.

male ZDF rats [2] = test: Acute study: single oral dose, dose-response, food intake; type: in vivo, rat
Excerpt: (§5) The animals used for this study were 30 male ZDF rats and 6 male lean ZDF rats obtained from Gmi (Indianapolis, Ind., USA). The rats arrived at 6 weeks of age. The acute study was undertaken when the rats were 7 weeks old and the chronic study started when the rats were 9 weeks old.
This was a single dose, dose-response study in ZDF rats. The 30 ZDF rats were allocated to one of 5 groups so that there were 6 rats in each group. In addition there were 6 untreated lean ZDF rats. All of the rats were housed individually. The acute dose of the compound as given by oral gavage at 9.30 AM. Control ZDF and lean rats received water. Food intake was measured over the periods 9.30-16.00 (daytime) and 16.00-9.30 (night-time) for 48 hours.
Six days prior to the single dose administration the rats were allocated to individual cages and were provided with food and water ad libitum. Four days prior to dose administration, 50 g of food was placed in each cage. Then two days prior to dose administration at ca 9.30 and 16.00 hours the food remaining was weighed and replaced with a further 50 g.
Acute Study—The compound (1) was made up in water. Animals were administered with a single oral dose of The compound (1) at the appropriate rate. Control animals received water alone at the rate of 1 ml/kg. The compound (1) was administered at ca 9.30 AM.
(§6) Daily food and water intake of each rat was measured by weight. Any spilled food was also collected and weighed so that an accurate estimate of food consumption could be made.

male ZDF rats [3] = test: Chronic study: blood glucose concentration in fasted rats; type: in vivo, rat; conditions: 5 h fast
Description: as §1, §3, §4
(§7) For measurement of blood glucose levels, a 20 μl sample of blood was taken from the tail vein whilst animals were in a fed state. A further 100 μl sample of blood was taken and the plasma separated by centrifugation (5000 rpm, 5 minutes). Plasma samples were then analysed for insulin and leptin using rat insulin or leptin ELISA kits (Crystal Chem Inc, PO Box 60225, Chicago, Ill. 60660, USA). Blood glucose, insulin and leptin levels were determined at approximately weekly intervals.
Fasted glucose, insulin and leptin levels were determined in an identical manner but animals were fasted for 5 hours prior to samples being taken.

male ZDF rats [4] = test: Chronic study: blood glucose concentration in fed rats; type: in vivo, rat
Description: as §1, §3, §4, §7

male ZDF rats [5] = test: Chronic study: daily oral dosing, food intake (incl. regression after withdrawal); type: in vivo, rat
Excerpt: as §5, §1, §2, §3, §4, §6
(§8) In order to determine the potential long-term effects of The compound (1), the measurement of food and water intake were continued following withdrawal of treatment.

male ZDF rats [6] = test: Chronic study: water intake; type: in vivo, rat
Description: as §1, §2, §3, §4, §6, §8

male ZDF rats [7] = test: Chronic study: oral glucose tolerance test (OGTT); type: in vivo, rat; conditions: day 9, oral 2 g/kg glucose load
Description: Oral glucose tolerance was measured at 9 days following treatment (chronic study). Animals were fasted for 5 hours prior to the start of the OGTT. Animals were treated with glucose diluted in water at a rate of 2 g/kg ([…]). Blood samples were taken at 0, 30, 60 90 and 120 minutes. Glucose concentrations were determined by mixing blood samples with 0.38 ml of haemolysis reagent. A duplicate 20 μl aliquots of this mixture was taken for each individual sample and placed in an assay tray. To each well was added 180 μl aliquots of Trinders glucose reagent. The samples were mixed and then left for approximately 30 minutes. Samples were then analysed automatically using a SpectraMax 250 and SoftMax Pro software (Molecular devices Corporation, 1311 Orleans Drive, Sunnyvale, Calif. 94089, USA). The results were converted into glucose concentration values using Prism software, version 3.0 (GraphPad Software Inc, San Diego, Calif. USA)
The OGTT was repeated after 30 days treatment. The procedure was identical except that the pair-fed rats were each given 6 g of food at 7 AM with food being withdrawn at 9 AM for 5 hours.
Blood samples for insulin were obtained at 30 minutes prior to and 60 minutes post glucose load.
Oral glucose tolerance was determined after 8 days and after 29 days of treatment, i.e. on day 9 and day 30. Rats were fasted for 5 hours prior to receiving an oral 2 g/kg glucose load.

normal rats = conditions: administered orally; previously shown; cited from earlier work
[8] = 120 mg/kg and 60 mg/kg daily oral

With `C/C=C(\C)C(=O)O[C@@H]1CC2C(CC=C3C[C@@H](OC4CC(OC)C(OC5CC(OC)C(OC6OC(C)C(O)C(OC)C6O)C(C)O5)C(C)O4)CC[C@@]32C)[C@@]2(O)CC[C@H](C(C)=O)[C@@]12C` (stereo partly drawn) [compound (1), 3-0-[-β-D-thevetopyranosyl-(1-4)-β-D-cymaropyranosyl-(1-4)-β-D-cymaropyranosyl]-12β-0-tigloyloxy-14-hydroxy-14β-pregn-50-en-20-one] the “growth rate after 14 days” value (male ZDF rats [1]; chronic dosing) was “higher growth rate than the control ZDF rats”, the “growth rate over the first 3 weeks of treatment relative to ZDF controls” value (male ZDF rats [1]; chronic dosing, both doses) was “dose-related decrease in the growth rate” and the bodyweight plateau level (male ZDF rats [1]; chronic study, ZDF controls plateaued at 360-370 g) was “more than 400 g”. For the same compound, the “bodyweight by the end of the treatment period versus ZDF controls” value (male ZDF rats [1]; high dose (120 then 60 mg/kg)) was “the same weight”, the “bodyweight by the end of the treatment period versus ZDF controls” value (male ZDF rats [1]; low dose (60 then 30 mg/kg)) was “heavier than the controls” and the “body weight about 2 weeks after withdrawal versus ZDF controls” value (male ZDF rats [1]; previously treated rats) was “significantly greater”. For the same compound, the “food intake for the period 24-48 hours past a single oral dose” value (male ZDF rats [2]; 20-160 mg/kg, daytime and night-time) was “reduced (both daytime and night-time) in a dose-related manner”, the “food intake in the second day (significance)” value (male ZDF rats [2]; single oral dose 80 mg/kg) was “significant” and the “food intake in the second day (significance)” value (male ZDF rats [2]; single oral dose 160 mg/kg) was “significant”. The “night-time food intake compared with lean rats” value (male ZDF rats [2]; single oral dose 160 mg/kg) was “the same as the lean rats”, the “food intake in the first 24 hours (significance)” value (male ZDF rats [2]; single oral dose 160 mg/kg (only dose significant)) was “Significant reduction” and the “onset of effect on food intake” value (male ZDF rats [2]; single oral dose given at 09.30) was “slow in onset”. For the same compound, the “daytime food intake over the 7 hour period post-dosing” value (male ZDF rats [2]; single oral dose, dose range 20-160 mg/kg) was “no significant effect”, the night-time food intake (male ZDF rats [2]; single oral dose, dose range 20-160 mg/kg, first night) was “dose-related reduction” and the “duration of response to a single dose” value (male ZDF rats [2]; single oral dose, effects seen during second day) was “long”. For the same compound, the “fasted blood glucose concentration versus ZDF controls” value (male ZDF rats [3]; after 8 days treatment) was “significantly lower”, the “fasted blood glucose concentration versus lean rats” value (male ZDF rats [3]; after 8 days treatment) was “did not differ significantly” and the “fasted blood glucose concentration versus ZDF controls” value (male ZDF rats [3]; after 29 days treatment) was “significantly lower”. The “fasted blood glucose concentration versus lean rats” value (male ZDF rats [3]; after 29 days treatment) was “did not differ significantly”, the “treatment of established diabetes, overall conclusion” value (male ZDF rats [4]; ZDF male rats) was “effective treatment” and the “blood glucose concentration in fed rats” value (male ZDF rats [4]; after 7 days of treatment) was “reduction in the blood glucose concentration from the diabetic level to a similar concentration as in lean littermates”. The “blood glucose concentration in fed rats after withdrawal of therapy” value (male ZDF rats [4]; after withdrawal) was “steadily increased”, the “glycaemic status (plasma glucose, glucose tolerance, water intake)” value (male ZDF rats [4]; chronic study, overall) was “substantial improvements in glycaemic status” and the “glycaemia in fed rats during therapy” value (male ZDF rats [4]; until withdrawal of therapy) was “Normal glycaemia was maintained”. The “daytime food intake over the first 7 days” value (male ZDF rats [5]; [8]) was “increasing effect”, the “time until full effect on night-time food intake apparent” value (male ZDF rats [5]; [8]) was 2 days and the “appetite suppression, overall conclusion” value (male ZDF rats [5]; ZDF male rats) was “powerful appetite suppressant”. For the same compound, the “effectiveness on food intake reduction over the period 7-14 days” value (male ZDF rats [5]; after dose reduction to 60 and 30 mg/kg) was “small reduction in the effectiveness”, the “rebound hyperphagia on withdrawal of the drug” value (male ZDF rats [5]; after end of chronic dosing) was “did not lead to a rebound hyperphagia” and the “reduction in food intake after 7 days” value (male ZDF rats [5]; both dose levels (120 and 60 mg/kg daily oral)) was “around 50%”. For the same compound, the “food intake after 14 days” value (male ZDF rats [5]; both groups, 60 and 30 mg/kg) was “stabilised”, the “pharmacological tolerance to food intake reduction” value (male ZDF rats [5]; chronic dosing) was “no indication of tolerance” and the “food intake over the treatment period” value (male ZDF rats [5]; chronic dosing, overall) was “marked reduction”. The “food intake after withdrawal of drug treatment, relative to control ZDF rats” value (male ZDF rats [5]; monitored for a further 17 days after withdrawal) was “only a small loss of efficacy”, the “water intake after withdrawal of the treatment” value (male ZDF rats [6]; after 30 days treatment, previously treated rats) was “rose slightly” and the “time after withdrawal before blood glucose concentration and water intake approached that of the diabetic controls” value (male ZDF rats [6]; after end of chronic dosing) was “approximately 2 weeks”. The “diabetic state by water intake after 66 days” value (male ZDF rats [6]; after withdrawal, versus untreated controls) was “not as diabetic as the untreated controls”, the “time for water intake to be reduced to the level in the lean controls” value (male ZDF rats [6]; high dose (120 or 60 mg/kg/day) or low dose (60 or 30 mg/kg/day), maintained throughout dosing) was at most 4 days and the oral glucose tolerance (male ZDF rats [7]) was “only marginally impaired relative to lean”. For the same compound, the “food intake in normal rats” value (normal rats) was “reduce food intake”.
